The source made the active and inactive calls.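 Rule for the calls: active = minimum cell viability of 80% or lower across the dose range, counted as toxic; inactive = minimum cell viability above 80%.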
Test: viability loss in fusion assay cells – cell-based, MAGI and MAGI-HeLa co-culture, cytotoxicity control for HIV-1 fusion inhibitor project, dose response (AID 2286);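 note: cells exposed to compound for at least 64 h before ATP readout; 100% = median of DMSO vehicle wells with no ATP signal meaning 0%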
Conditions: MAGI-CCR5 cells viability, CellTiter-Glo ATP luminescence; for minimum viability: measured here: MAGI minimum viability across doses
[1] = MAGI-HeLa co-culture viability, at 50 µM, stronger effect = lower value
[2] = at 1.56 µM, stronger effect = lower value
[3] = at 3.13 µM, stronger effect = lower value
[4] = at 0.1 µM, stronger effect = lower value
[5] = at 6.25 µM, stronger effect = lower value
[6] = at 12.5 µM, stronger effect = lower value

| Compound | viability [1] [%] | viability (at 50 µM (top of the series)) | minimum viability (at 50 µM, stronger effect = lower value) [%] | further results |
| --- | --- | --- | --- | --- |
| COc1cc(/C=C2/C(=O)NN(c3ccc(C)c(Cl)c3)C2=O)cc([N+](=O)[O-])c1O | 103 | 107% (inactive) | – | minimum viability [2]: 91.2% |
| CC(C)(C)c1ccc2c(c1)OC(C(=O)N/N=C\c1ccc(-c3cccc(C(=O)O)c3)o1)CO2 (configuration not stated) | 105 | 87.8% (inactive) | – | minimum viability [3]: 87.5% |
| COc1cc(NS(=O)(=O)c2ccc(Nc3nc(-c4ccccc4)cs3)cc2)nc(OC)n1 | 82.3 | – | 67.3 | – |
| O=C(O)c1[nH]c2ccccc2c1C(c1c(F)cccc1Cl)c1c(C(=O)O)[nH]c2ccccc12 | 114 | 104% (inactive) | – | minimum viability [4]: 87.9% |
| O=C(O)CN1C(=O)/C(=C\c2cc(Br)ccc2OCc2ccccc2Cl)SC1=S | 112 | 106% (inactive) | – | minimum viability [3]: 94.6% |
| O=C(O)CCN1C(=O)/C(=C\c2cccc(Oc3ccccc3)c2)SC1=S | 90.5 | 87.3% (inactive) | – | minimum viability (at 25 µM, stronger effect = lower value): 86.3% |
| O=C1NC(=S)N(c2ccc(F)cc2)C(=O)/C1=C/c1ccco1 | 122 | 131% (inactive) | – | minimum viability [2]: 105% |
| CCOc1cc(/C=C2/C(=N)N3C(=NC2=O)SN=C3S(=O)(=O)CC)ccc1OC(=O)c1ccco1 | 108 | 112% (inactive) | – | minimum viability [4]: 106% |
| O=C(CSc1nc2ccccc2c(=O)n1Cc1ccccc1)Nc1ccc(Br)cc1C(=O)O | 96.5 | 87.7% (inactive) | – | minimum viability (at 25 µM, stronger effect = lower value): 81.4% |
| O=C(O)c1ccc(/C=N/NC(=O)c2ccc(CN3c4cccc5cccc(c45)S3(=O)=O)cc2)cc1 | 93.3 | 85% (inactive) | – | minimum viability [5]: 83.3% |
| N#Cc1c(-c2ccccc2)nc(SCc2ccc(Cl)cc2)[nH]c1=O | 113 | 86.1% (inactive) | 86.1 | – |
| CCCOc1ccc(C2C(C(=O)c3cc4ccccc4o3)=C(O)C(=O)N2c2cc(C)on2)cc1 (configuration not stated) | 97.9 | – | 67.9 | – |
| Cc1cc(N2C(=O)C(O)=C(C(=O)c3cc4ccccc4o3)C2c2ccc(Cl)cc2)no1 (configuration not stated) | 123 | 83.2% (inactive) | 83.2 | – |
| CCN1C(=O)/C(=C\c2ccc(-c3ccc([N+](=O)[O-])cc3OC)o2)SC1=Nc1cccc(C(=O)O)c1 | 106 | 88.3% (inactive) | – | minimum viability [3]: 87.5% |
| COc1cc(NS(=O)(=O)c2ccc(NC(=S)NC(=O)c3sc4ccccc4c3Cl)cc2)nc(OC)n1 | 105 | – | 76.8 | – |
| COc1cc(/C=C2\C(=N)N3N=C(S(C)(=O)=O)SC3=NC2=O)ccc1OC(=O)c1ccco1 | 102 | 101% (inactive) | – | minimum viability [2]: 87.6% |
| CCCCCOc1ccc(C2C(C(=O)c3ccc(C)o3)=C(O)C(=O)N2c2cc(C)on2)cc1 (configuration not stated) | 113 | 85.1% (inactive) | – | minimum viability (at 25 µM, stronger effect = lower value): 84.6% |
| CC(C)c1ccc(OCC(=O)Nc2cccc(C(=O)Nc3ccccc3C(=O)O)c2)cc1 | 96.4 | 84% (inactive) | 84 | – |
| C=CCOC(=O)C1=C(C)N=c2s/c(=C3\C(=O)N(CC(=O)O)c4ccccc43)c(=O)n2C1c1ccc(OC)cc1 (configuration not stated) | 105 | 97.3% (inactive) | – | minimum viability (at 25 µM, stronger effect = lower value): 85.1% |
| O=C(O)/C(CC(=O)c1ccc(Cl)cc1)=N/Nc1ccc([N+](=O)[O-])cc1[N+](=O)[O-] | 114 | 84% (inactive) | 84 | – |
| Cc1ccc(-n2cccc2/C=C2/C(=N)N3C(=NC2=O)SN=C3S(C)(=O)=O)cc1Cl | 96.7 | – | 77.3 | – |

| Compound | viability [1] [%] | viability (at 50 µM (top of the series)) | minimum viability (at 50 µM, stronger effect = lower value) [%] | further results |
| --- | --- | --- | --- | --- |
| COc1ccc(-c2csc(NC(=O)CSc3nc(C)nc4sc(C(=O)O)c(C)c34)n2)cc1 | 109 | 99.7% (inactive) | – | minimum viability [2]: 83.4% |
| CCOC(=O)c1sc(N2C(=O)C(O)=C(C(=O)c3ccco3)C2c2ccc([N+](=O)[O-])cc2)nc1C (configuration not stated) | 124 | 80.3% (inactive) | 80.3 | – |
| O=c1/c(=C\c2cc([N+](=O)[O-])cc([N+](=O)[O-])c2O)sc2nc3ccccc3n12 | 115 | 104% (inactive) | – | minimum viability [5]: 97.5% |
| COc1cc(/C=C2\SC(=Nc3ccccc3)N(CCc3c[nH]c4ccccc34)C2=O)ccc1OC(C)C(=O)O (configuration not stated) | 103 | – | – | viability (at 25 µM (top of the series)): 101% (inactive); minimum viability [5]: 95.5% |
| CC(C)CS(=O)(=O)C1=NN2C(=N)/C(=C\c3ccc(OC(=O)c4ccco4)cc3)C(=O)N=C2S1 | 104 | 96.6% (inactive) | – | minimum viability [6]: 85.6% |
| Cc1cc(C)c2nc(N3C(=O)C(O)=C(C(=O)c4ccco4)C3c3ccco3)sc2c1 (configuration not stated) | 119 | 91.8% (inactive) | 91.8 | – |
| COc1cc(/C=N/NC(=O)C(Cc2c[nH]c3ccccc23)NC(=O)OCc2ccccc2)cc([N+](=O)[O-])c1O (configuration not stated) | 107 | 95% (inactive) | – | minimum viability (at 25 µM, stronger effect = lower value): 92.5% |
| COc1cccc(-c2nc(SCC(=O)Nc3nc(-c4ccccc4)c(C)s3)[nH]c(=O)c2C#N)c1 | 116 | 87.6% (inactive) | 87.6 | – |
| COc1cc(/C=C2\SC(=O)N(c3ccccc3Cl)C2=O)cc([N+](=O)[O-])c1O | 85.2 | – | 50 | – |
| CCOc1ccc(NC(=NCc2ccc3c(c2)OCO3)SC2CC(=O)N(c3ccc(C(=O)O)cc3)C2=O)cc1 (configuration not stated) | 81.3 | – | – | viability (at 25 µM (top of the series)): 84.3% (inactive); minimum viability (at 25 µM, stronger effect = lower value): 84.3% |
| Cc1cc(Cl)ccc1OC(C)C(=O)Nc1ccc(S(=O)(=O)Nc2cnc3ccccc3n2)cc1 (configuration not stated) | 89.2 | – | 72.9 | – |
| N#Cc1c(-c2cccs2)nc(SCc2ccc(Cl)cc2)[nH]c1=O | 118 | – | 73 | – |
| CCC(Sc1nc2ccsc2c(=O)n1Cc1ccc(C(=O)O)cc1)C(=O)Nc1ccc(C)c(Cl)c1 (configuration not stated) | 98 | – | – | viability (at 25 µM (top of the series)): 93.6% (inactive); minimum viability [3]: 86.7% |
| CS(=O)(=O)C1=NSC2=NC(=O)/C(=C\c3cccn3-c3ccc(Cl)cc3)C(=N)N21 | 93.6 | 88% (inactive) | 88 | – |
| O=C(O)c1ccccc1-c1ccccc1C(=O)Nc1ccc(-c2nc3cc(Cl)ccc3o2)cc1 | 80.5 | – | 56.8 | – |
| Cc1ccc(S(=O)(=O)Oc2ccc(/C=C3\C(=N)N4N=C(S(C)(=O)=O)SC4=NC3=O)cc2)cc1 | 103 | 98.5% (inactive) | – | minimum viability (at 25 µM, stronger effect = lower value): 97.1% |
| O=C(COc1cccc2ccccc12)Nc1ccc(Cl)cc1C(=O)O | 86.1 | – | 67.5 | – |
| COc1ccc(OC)c(N2C(=O)/C(=C/c3ccco3)C(=O)NC2=S)c1 | 90.2 | 94.8% (inactive) | – | minimum viability [5]: 83.8% |
| O=C(O)COc1ccccc1/C=N/NC(=O)CSc1nnc(SCc2cccc3ccccc23)s1 | 106 | 92.5% (inactive) | – | minimum viability [5]: 86.9% |
| COc1cc(OC)c2c(O)c3c(c(-c4c5c(c(O)c6c(OC)cc(OC)cc46)CO[C@@H](C)[C@H]5O)c2c1)[C@H](O)[C@H](C)OC3 | 102 | 103% (inactive) | – | minimum viability [6]: 88.2% |
| NC(=O)Cn1cc(C=C2C(=O)NC(=O)NC2=O)c2ccccc21 | 99.6 | 91.7% (inactive) | 91.7 | – |

Reference: PubChem BioAssay AID2286 (Southern Research Specialized Biocontainment Screening …, 2010)
